Laboratory results from ChEMBL document CHEMBL3861948 (Medchemcomm, 2016).
pIC50: −log10 of the molar value.

Molecular target: Mitogen-activated protein kinase 14 (Homo sapiens, UniProt Q16539)
Assay: Inhibition of p38alpha in human THP1 cells assessed as suppression of LPS-induced TNFalpha secretion preincubated for 30 mins followed by LPS challenge measured after 2 hrs
Assay type: cell-based, THP-1

Sequence of Mitogen-activated protein kinase 14 (Q16539 whole entry): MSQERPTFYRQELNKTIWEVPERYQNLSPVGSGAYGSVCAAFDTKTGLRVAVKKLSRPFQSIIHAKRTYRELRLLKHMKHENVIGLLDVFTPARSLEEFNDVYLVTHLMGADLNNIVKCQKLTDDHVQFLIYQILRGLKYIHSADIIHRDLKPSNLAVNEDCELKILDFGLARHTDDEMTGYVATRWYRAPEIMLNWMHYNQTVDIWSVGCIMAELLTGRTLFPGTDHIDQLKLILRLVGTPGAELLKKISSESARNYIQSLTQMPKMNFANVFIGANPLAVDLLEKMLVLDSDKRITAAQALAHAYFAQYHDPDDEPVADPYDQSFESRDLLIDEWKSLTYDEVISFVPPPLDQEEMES

A pIC50 of 7.36 was found for `NC(=O)[C@H](CCC1CCCCC1)NC(=O)[C@H]1CC[C@H](CNC(=O)c2cnn(-c3ccccc3)c2N)CC1` in this work.

A pIC50 of 7.34 was found for `CNC(=O)[C@H](Cc1cccc(C(F)(F)F)c1)NC(=O)c1ccc(CNC(=O)c2cnn(-c3ccccc3)c2N)cc1` in this work.
